The values below come from US20090191177A1, “Enantiomerically Pure (-) 2-[1-(7-methyl-2-(morpholin-4-yl)-4-oxo-4H-pyrido[1,2-A]pyrimidin-9-yl)ethylamino]benzoic Acid, Its Use In Medical Therapy, And A Pharmaceutical Composition Comprising It - 026” (priority 2008, published 2009).

A word on the IC50: it is the concentration at which inhibition is half-maximal. Read a high IC50 as a need for much substance.

The experiment concerns washed platelets. The experiment can be described thus: Washed Platelet Aggregation (WPA), CD9 antibody-induced. It is filed as cell-based. The conditions noted are these: washed platelets from healthy volunteers, aggregation induced by mouse anti-human CD9 antibody. On the procedure:
Blood was collected from healthy volunteers by venipuncture using a Venflon needle 1.5*45 mm (17 GA, 1.77 IN). The first 2 ml of blood was discarded prior to collecting aliquotes into tubes containing acid citrate dextrose (ACD). One volume of ACD is required for six volumes of blood.
The anticoagulated blood was centrifuged for 15 min at 240×g to obtain platelet rich plasma (PRP). PRP was transferred to a new tube and centrifuged for 15 min at 2200×g. The supernatant was discarded and the platelet pellet re-suspended to […] in Tyrodes buffer (TB) containing 1 μM hirudin and 0.02 U/mL apyrase. The platelet suspension was left to rest at room temperature for 30 min. Just prior to time for assay, CaCl2 was added to a final concentration of 2 mM. The Compound, or wortmannin, was dissolved in DMSO and added to a 96 well plate prior to the addition of the washed platelet suspension. The platelet suspension was preincubated with inhibitor for 5 min. Light absorption at 650 nm was recorded before and after a 5 min plate shake and referred to as recording 0 (R0) and R1. A mouse anti-human CD9 antibody was added (at a donor specific concentration) to each well prior to next 10 min plate shake and light absorption recording; R2.
A concentration response for CD9 antibody-induced aggregation in the absence or presence of 1 μM wortmannin (complete PI3K inhibition) was performed in each washed platelet suspension prior to testing of the Compound. The CD9 antibody concentration with the largest dependence of PI3K inhibition was chosen for the test.
Light absorbance in wells with TB were subtracted from all readings before percent aggregation was calculated according the formula: [(R1−R2)/R1]×100=% aggregation. Spontaneous aggregation or pro-aggregatory effect of the inhibitor was evaluated by the same formula, [(R0−R1)/R0]×100=% aggregation.

`Cc1cc(C(C)Nc2ccccc2C(=O)O)c2nc(N3CCOCC3)cc(=O)n2c1` (racemic) [WO2004016607, 2-[1-(7-Methyl-2-(morpholin-4-yl)-4-oxo-4H-pyrido[1,2-α]pyrimidin-9-yl)ethylamino]benzoic acid, reference compound] came in with an IC50 (Homo sapiens, Platelet) of 10 nM.
`Cc1cc(C(C)Nc2ccccc2C(=O)O)c2nc(N3CCOCC3)cc(=O)n2c1` (single isomer, unassigned; (-)) [Ex. 1, (−) 2-[1-(7-Methyl-2-(morpholin-4-yl)-4-oxo-4H-pyrido[1,2-a]pyrimidin-9-yl)ethylamino]benzoic acid] yielded an IC50 of 6 nM.
For the molecule `Cc1cc(C(C)Nc2ccccc2C(=O)O)c2nc(N3CCOCC3)cc(=O)n2c1` (single isomer, unassigned; (+)) [Ex. 2, (+) 2-[1-(7-Methyl-2-(morpholin-4-yl)-4-oxo-4H-pyrido[1,2-a]pyrimidin-9-yl)ethylamino]benzoic acid], the IC50 worked out at 1650 nM.
